Measured values taken from patent publication US10004222B2, “Small molecule ice recrystallization inhibitors and methods of use thereof” (THE UNIVERSITY OF OTTAWA, priority 2012, dated 2018).
“And” between values parts separate entries of the source, which are not always exact repeats. Identical values can stand only once.

Columns and labels:
[1] = test system: CD34+ cells (hematopoietic stem cells); experiment: post-thaw viability of CD34+ cells of cryopreserved umbilical cord blood, flow cytometry; format: cell-based, human; settings: for Post-Thaw Viab.: UCB Unit 27; for CD34+ cell viability compared with control: vs control that contained 10% DMSO only
Procedure: Whole umbilical cord blood (UCB) should be stored at room temperature (15-25° C.) and processed within 48 hrs of collection. UCB is removed from collection bag and spilt in equal parts into 50 mL Falcon tubes. No more than 25 mL of UCB should be added per Falcon tube. UCB is diluted with 6% hetastarch (Hespan) to obtain a final concentration of 1% hetastarch and incubated for 10 minutes at room temperature. The tubes are then centrifuged at 50 g at 10° C. for 15-20 minutes, depending on volume. The centrifuge should not brake to stop. For total volumes of 30 mL, 15-17 minute centrifugation is utilized and for total volumes of 35 mL, 17-20 minute centrifugation is utilized. The supernatant and buffy coat (plasma and leukocytes) are removed carefully (not collecting RBCs) from the tubes and collected into new 50 mL Falcon tubes. These tubes are centrifuged at 400 g and 10° C. for 10 mins to pellet cells. The centrifuge brake can now be utilized. Plasma is removed and kept in new 50 mL Falcon tubes on ice. The cell pellets resuspended and combined in plasma to a total volume of 20 mL to generate leukocyte concentrate (LC). The LC is kept on ice for the duration of its use. Total mononuclear (CD45^+) and CD34^+ (hematopoetic stem cells) cell concentrations and viability are determined by flow cytometry (see Flow Cytometry procedure below). Aliquots of LC (50,000 CD34^+ cells) are utilized for cryopreservation experiments (see Cryopreservation Experiments procedure below).
(§1) Aliquots of LC (50,000 CD34^+ cells) are added to 2.0 mL cryovials. For each experiment, four cryovials are prepared (two for post-thaw viability analysis using flow cytometry and two for functionality analysis using the colony forming unit assay). Cryovials are kept on ice until placement in −80° C. freezer. Cryovials are centrifuged at 400 g and 10° C. for 5 minutes to pellet cells. After centrifugation, the time taken until placement in −80° C. freezer should not exceed 10 minutes. Supernatant is removed by aspiration or by decanting, but preferably by aspiration. Plasma (volume depends on desired cryosolution concentration) is added and cells are suspended by pipetting. Pre-made cryosolutions (see Cryosolutions) are added (volume depends on desired cryosolution concentration) and mixed by pipetting. Cryovials are placed in a Mr. Frosty® rate controlled freezing container which is then placed in a −80° C. freezer for 24 hours. By placing the cryovials in the freezing container, their contents undergo a cooling rate of about −1° C. per minute. After 24 hours, the cryovials are transferred to a liquid nitrogen dewar for storage until thawed for analysis.
(§2) Cryosolutions are prepared in distilled autoclaved water supplemented with 0.9% saline and 5% dextran for cryopreservation experiments and diluted with different volumes of plasma in cryovials depending on desired concentration of ice recrystallization inhibitor. N-(4-chlorophenyl)-D-gluconamide (4a) and N-(2-fluorophenyl)-D-gluconamide (2a) are prepared at 25 mM and N-(4-methoxyphenyl)-D-gluconamide (3a) and N-(2,6-difluorobenzyl)-D-gluconamide (1b) are prepared at 55 mM. 100, 50, 33 or 20 μL of 25 mM N-(4-chlorophenyl)-D-gluconamide (4a) or N-(2-fluorophenyl)-D-gluconamide (2a) are added to cryovials containing 50,000 CD34^+ cells suspended in 0, 50, 67, or 80 μL of plasma, respectively, for a final IRI concentration of 25, 12.5, 8 or 5 mM, respectively. 100, 50, 33 or 20 μL of 55 mM N-(4-methoxyphenyl)-D-gluconamide (3a) or N-(2,6-difluorobenzyl)-D-gluconamide (1b) are added to cryovials containing 50,000 CD34^+ cells suspended in 0, 50, 67, or 80 μL of plasma, respectively, for a final IRI concentration of […], 18 or 11 mM, respectively.
Total mononuclear cell (CD45+) and progenitor cell (CD34+) viability is assessed by flow cytometry using International Society of Hematotherapy and Graft Engineering (ISHAGE) guidelines (J. Hematother. Stem Cell Res. 1996, 5, 213-226). […]

[2] = test system: CD34+ cells (hematopoietic stem cells); experiment: colony forming unit (CFU) assay after cryopreservation of umbilical cord blood; format: cell-based, human; settings: for BFU-E / CFU-G / CFU-GEMM / CFU-GM / CFU-M / Total Number of Colonies: 10% DMSO, post-thaw, 14 days in Methocult; for combined results of the CFU assays vs control: UCB units 26, 27, 28 combined, FIG. 41
Procedure: as §1, §2
Cryovials are thawed in a 37° C. water bath and diluted with 900 μL of IMDM (10% FBS, 1% penicillin/streptomycin). Cryovials are placed on ice until washed. Samples are mixed by pipetting and 80 μL is transferred to a 15 mL Falcon tube. 5 mL of Iscove's Modified Dulbecco's Medium (IMDM) supplemented with 10% fetal bovine serum (FBS) is added and this mixture is centrifuged at 1100 rpm for six minutes to yield a cell pellet and a supernatant. The supernatant is removed by aspiration and the cell pellet is resuspended in 1 mL IMDM (2% FBS) to form a suspension. The suspension is mixed by pipetting. 150 μL of this cell suspension is added to 3 mL Methocult™ media and plating is performed in accordance with manufacturer's instruction. The suspension with Methocult™ media is mixed adequately by vortexing for 20 seconds. The contents are allowed to settle and bubbles are allowed to subside before plating (approximately 5-10 minutes). Using a 3 mL syringe and 16 gauge blunt needles, 2.5 mL of the cell suspension in Methocult™ is taken from the bottom. 1 mL of this 2.5 mL is added to two 5 mL cell culture dishes. The dishes are swirled to ensure cells in Methocult™ medium coat the entire bottom of the dish. A third 5 mL dish is prepared to contain distilled autoclaved water without a lid. These three 5 mL dishes are placed in a 100 mL plate; two 5 mL dishes contain 1 mL of cell suspension in Methocult™ medium with the lid on and one containing distilled autoclaved water with the lid off. The lid is placed on the 100 mL plate and stored in a 37° C. incubator (5% CO2) for two weeks.

Compound: O=C(NCc1c(F)cccc1F)[C@H](O)[C@@H](O)[C@H](O)[C@H](O)CO [(1b), N-(2,6-difluorobenzyl)-D-gluconamide]
- Post-Thaw Viab. ([1]; 11 mM IRI): 57%
- CD34+ cell viability compared with control [1]: substantially similar to the control
- BFU-E ([2]; 11 mM IRI): 25.3
- CFU-G ([2]; 11 mM IRI): 4.3
- CFU-GEMM ([2]; 11 mM IRI): 2.4
- CFU-GM ([2]; 11 mM IRI): 9.8
- CFU-M ([2]; 11 mM IRI): 1.5
- Total Number of Colonies ([2]; 11 mM IRI): 41.9
- Tot. No. Colonies ([2]; 11 mM IRI, UCB Unit 27): 31 and 30
- BFU-E ([2]; 18 mM IRI): 24.0
- CFU-G ([2]; 18 mM IRI): 9.5
- CFU-GEMM ([2]; 18 mM IRI): 7.5
- CFU-GM ([2]; 18 mM IRI): 11.0
- CFU-M ([2]; 18 mM IRI): 4.5
- Total Number of Colonies ([2]; 18 mM IRI): 56.5
- fold increase in functionality relative to the control ([2]; 18 mM vs DMSO only): 1.8 fold
- CFU-G ([2]; 27.5 mM IRI): 3.0
- CFU-GEMM ([2]; 27.5 mM IRI): 3.5
- CFU-GM ([2]; 27.5 mM IRI): 11.0
- Total Number of Colonies ([2]; 27.5 mM IRI): 48.0
- BFU-E ([2]; 55 mM IRI): 29.5
- CFU-G ([2]; 55 mM IRI): 8.5
- CFU-GEMM ([2]; 55 mM IRI): 1.5
- CFU-GM ([2]; 55 mM IRI): 10.5
- CFU-M ([2]; 55 mM IRI): 0.5
- Total Number of Colonies ([2]; 55 mM IRI): 50.5
- combined results of the CFU assays vs control [2]: performed particularly well

Compound: O=C(Nc1ccccc1F)[C@H](O)[C@@H](O)[C@H](O)[C@H](O)CO [(2a), N-(2-fluorophenyl)-D-gluconamide]
- Post-Thaw Viab. ([1]; 5 mM IRI): 88%
- CD34+ cell viability compared with control [1]: substantially similar to the control
- Tot. No. Colonies ([2]; 5 mM IRI, UCB Unit 26): 48 and 66 and 42
- Tot. No. Colonies ([2]; 5 mM IRI, UCB Unit 27): 38 and 34
- combined results of the CFU assays vs control [2]: performed particularly well

Compound: COc1ccc(NC(=O)[C@H](O)[C@@H](O)[C@H](O)[C@H](O)CO)cc1 [(3a), N-(4-methoxyphenyl)-D-gluconamide]
- Post-Thaw Viab. ([1]; 11 mM IRI): 78%
- CD34+ cell viability compared with control [1]: substantially similar to the control
- BFU-E ([2]; 11 mM IRI): 20.5
- CFU-G ([2]; 11 mM IRI): 5.5
- CFU-GEMM ([2]; 11 mM IRI): 5.9
- CFU-GM ([2]; 11 mM IRI): 7.4
- CFU-M ([2]; 11 mM IRI): 0.9
- Total Number of Colonies ([2]; 11 mM IRI): 40.4
- Tot. No. Colonies ([2]; 11 mM IRI, UCB Unit 27): 33 and 37
- BFU-E ([2]; 18 mM IRI): 18.0
- CFU-G ([2]; 18 mM IRI): 8.8
- CFU-GEMM ([2]; 18 mM IRI): 2.8
- CFU-GM ([2]; 18 mM IRI): 11.3
- CFU-M ([2]; 18 mM IRI): 0.3
- Total Number of Colonies ([2]; 18 mM IRI): 36.0
- CFU-G ([2]; 27.5 mM IRI): 6.5
- CFU-GEMM ([2]; 27.5 mM IRI): 15.5
- CFU-GM ([2]; 27.5 mM IRI): 14.0
- Total Number of Colonies ([2]; 27.5 mM IRI): 74.5
- fold increase in functionality relative to the control ([2]; 27.5 mM vs DMSO only): 2.4 fold
- BFU-E ([2]; 55 mM IRI): 24.5
- CFU-G ([2]; 55 mM IRI): 9.5
- CFU-GEMM ([2]; 55 mM IRI): 6.5
- CFU-GM ([2]; 55 mM IRI): 15.0
- CFU-M ([2]; 55 mM IRI): 1.0
- Total Number of Colonies ([2]; 55 mM IRI): 56.5
- combined results of the CFU assays vs control [2]: performed particularly well

Compound: O=C(Nc1ccc(Cl)cc1)[C@H](O)[C@@H](O)[C@H](O)[C@H](O)CO [(4a), N-(4-chlorophenyl)-D-gluconamide]
- Post-Thaw Viab. ([1]; 5 mM IRI): 88%
- CD34+ cell viability compared with control [1]: substantially similar to the control
- BFU-E ([2]; 5 mM IRI): 22.2
- CFU-G ([2]; 5 mM IRI): 4.2
- CFU-GEMM ([2]; 5 mM IRI): 6.8
- CFU-GM ([2]; 5 mM IRI): 11.5
- CFU-M ([2]; 5 mM IRI): 1.3
- Total Number of Colonies ([2]; 5 mM IRI): 46.0
- Tot. No. Colonies ([2]; 5 mM IRI, UCB Unit 27): 47 and 38
- BFU-E ([2]; 8 mM IRI): 17.0
- CFU-G ([2]; 8 mM IRI): 8.0
- CFU-GEMM ([2]; 8 mM IRI): 4.0
- CFU-GM ([2]; 8 mM IRI): 10.5
- CFU-M ([2]; 8 mM IRI): 0.5
- Total Number of Colonies ([2]; 8 mM IRI): 40.0
- BFU-E ([2]; 12.5 mM IRI): 44.0
- CFU-G ([2]; 12.5 mM IRI): 1.5
- CFU-GEMM ([2]; 12.5 mM IRI): 0.0
- CFU-GM ([2]; 12.5 mM IRI): 8.5
- CFU-M ([2]; 12.5 mM IRI): 3.0
- Total Number of Colonies ([2]; 12.5 mM IRI): 61.0
- BFU-E ([2]; 25 mM IRI): 37.0
- CFU-G ([2]; 25 mM IRI): 11.5
- CFU-GEMM ([2]; 25 mM IRI): 2.0
- CFU-GM ([2]; 25 mM IRI): 10.5
- CFU-M ([2]; 25 mM IRI): 2.0
- Total Number of Colonies ([2]; 25 mM IRI): 63.0
- fold increase in functionality relative to the control ([2]; 25 mM vs DMSO only): 2.0 fold
- combined results of the CFU assays vs control [2]: performed particularly well
